{
  "source": "patent US20240287463A1",
  "about": "“INDUCIBLE TISSUE CONSTRUCTS AND USES THEREOF” (Massachusetts Institute of Technology, priority 2020, published 2024)",
  "key": {"[1]": {"test_system": "primary human hepatocytes", "test": "hepatocyte function and toxicity in 3D spheroid-laden hydrogels after fibroblast deletion", "assay_type": "cell-based", "description": "Specifically, MPCC were fabricated as described previously (S. R. Khetani and S. N. Bhatia (2005) Nat. Biotechnol 26, 120; S. March et al. (2015) Nat. Protoc. 10, 2007). Briefly, collagen was adsorbed in each well of a 96 well plate (glass bottom), and then patterned using an elastomeric polydimethysiloxane mold and oxygen plasma gas ablation. Human hepatocytes were thawed and seeded (70 k/well) on the collagen islands (500 μm with 1,200 μm center-to-center spacing). Adhered hepatocytes (˜10 k/well) were allowed to spread overnight before fibroblasts were seeded for co-culture (7 k/well). Supernatant was collected from cultures every other day and stored at −20° C. Human albumin was quantified using an enzyme-linked immunosorbent assay using a sheep anti-rat albumin antibody (ELISA) (Bethyl Laboratories) and 3,3′,5,5′-tetramethylbenzidine (TMB, Thermo Fisher). Urea concentration was measured using a colorimetric (diacetylmonoxime) assay with acid and heat (Stanbio Labs). CYP3A4 activity was assessed with the luminogenic P450-GloTM CYP450 assay kit (Promega) for nonlytic assays using cultured cells. Cultures were pre-treated with 2 μM rifampin or 1:1,000 DMSO vehicle control prepared in hepatocyte maintenance media for 72 hours (daily replenishment) where indicated.\nPrevious work identified that phenotypic stability and longevity of primary hepatocytes cultured as 3D microtissues were transiently supported by pre-aggregation to increase homotypic cell-cell interactions, and were further enhanced upon inclusion of J2 fibroblasts (C. Y. Li et al. (2014) Tissue Eng. Part A 20, 2200). Thus, iCasp9-GFP J2 fibroblasts were incorporated into these 3D hepatic ensembles, which were fabricated by plating primary human hepatocytes and fibroblasts in microwells in order to facilitate physical cell-cell contacts, as previously described (K. Stevens et al. (2013) Nat. Commun. 4, 1847; K. R. Stevens et al. (2017) Sci. Transl. Med. 9, eaaah5505). Specifically, cryopreserved 365 human hepatocytes were thawed and immediately plated with fibroblasts in AggreWells (400 μm pyramidal microwells) and incubated overnight. Hepatic spheroids (about 150 hepatocytes per spheroid, ˜100 μm diameter) were imaged and analyzed to quantify the extent of spheroid compaction. Individual spheroids were isolated manually using Fiji, (J. Schindelin et al. (2012) Nat. Methods 9, 676). […] Resulting morphologies were traced and measured for circularity. […]\nTo probe the dependence of hepatocyte phenotypic stability on fibroblast co-culture in 3D, fibroblasts were deleted from spheroid-laden hydrogel cultures using CAMEO after 1 day of hepatocyte-fibroblast co-culture. Fibroblasts were robustly removed from 3D co-cultures as described in the above Examples, and detected by immunofluorescence imaging (FIG. 3I). […]"}, "iCasp9-HDFs": {"test_system": "iCasp9-HDFs", "test": "live imaging of fibroblast removal in the 3D microfluidic co-culture device", "assay_type": "cell-based, human", "settings": "10 nM CID after 7 days of co-culture", "method": "More specifically, the molds for the 2-channel microfluidic devices were constructed using stereolithography (Proto Labs). Polydimethylsiloxane (PDMS) was cured at a standard mixing ratio overnight at 60° C. in the mold, and individual devices were cut and plasma-bonded to glass slides. To enhance ECM bonding to PDMS, the surface inside the tissue chamber of the devices was functionalized with 0.01% poly-L-lysine and 1% glutaraldehyde following plasma-activation and washed overnight in DI water. On the day of seeding, devices were soaked in 70% ethanol (EtOH) and dried. Acupuncture needles (300 μm diameter) (Hwato) were blocked in 0.1% (w/v) bovine serum albumin (BSA) (Sigma) in phosphate buffer saline (PBS) for 45 minutes and inserted through the two needle guides. Devices with needles were UV-sterilized for 15 minutes. Once the needles were inserted, a fibrinogen solution containing human umbilical vein endothelial cells (HUVECs) and growth-arrested human dermal fibroblasts (HDFs) were added into the tissue chamber with thrombin. To prepare the cells for seeding, HDFs or iCasp-9 HDFs were growth-arrested with 10 μg/mL mitomycin in FGM-2 for 2.5 hours and thoroughly washed 5 times in FBM. Both HUVECs and HDFs were lifted from culture plates using TrypLE Express (Gibco), centrifuged at 200 g for 4 minutes, and resuspended to a concentration of 20 million cells/mL in EGM-2. […]"}},
  "data": [
    {"smiles": "CC[C@H](C(=O)N1CCCC[C@H]1C(=O)O[C@H](CCc1ccc(OC)c(OC)c1)c1cccc(OCC(=O)NCC(CNC(=O)COc2cccc([C@@H](CCc3ccc(OC)c(OC)c3)OC(=O)[C@@H]3CCCCN3C(=O)[C@@H](CC)c3cc(OC)c(OC)c(OC)c3)c2)CN(C)C)c1)c1cc(OC)c(OC)c(OC)c1", "note": "[CID, AP20187]", "values": [
      {"measurement": "hepatocyte function", "setting": "[1]; 50 nM CID after 3 or 7 days of co-culture", "result": "negatively impacted"},
      {"measurement": "hepatocyte phenotype by albumin secretion rate", "setting": "[1]; CID after 1 day of co-culture, followed up to 3 weeks", "result": "stable phenotype"},
      {"measurement": "hepatocyte function, CID pre- versus post-encapsulation in fibrin", "setting": "[1]; data not shown", "result": "No difference"},
      {"measurement": "toxicity to co-cultured hepatocytes", "setting": "[1]; spheroid-laden hydrogel cultures, data not shown", "result": "without any apparent toxicity"},
      {"measurement": "time by which most of the fibroblast population was removed", "setting": "iCasp9-HDFs", "result": "≤ 10", "unit": "h"},
      {"measurement": "time to rapid rounding of iCasp9-HDFs", "setting": "iCasp9-HDFs", "result": "≤ 5", "unit": "h"}
    ]}
  ]
}
